Holding throughout (type): functional
The target in experiment [1] is T1, High affinity choline transporter 1 (Homo sapiens, UniProt Q9GZV3).
T1 sequence (Q9GZV3 whole entry): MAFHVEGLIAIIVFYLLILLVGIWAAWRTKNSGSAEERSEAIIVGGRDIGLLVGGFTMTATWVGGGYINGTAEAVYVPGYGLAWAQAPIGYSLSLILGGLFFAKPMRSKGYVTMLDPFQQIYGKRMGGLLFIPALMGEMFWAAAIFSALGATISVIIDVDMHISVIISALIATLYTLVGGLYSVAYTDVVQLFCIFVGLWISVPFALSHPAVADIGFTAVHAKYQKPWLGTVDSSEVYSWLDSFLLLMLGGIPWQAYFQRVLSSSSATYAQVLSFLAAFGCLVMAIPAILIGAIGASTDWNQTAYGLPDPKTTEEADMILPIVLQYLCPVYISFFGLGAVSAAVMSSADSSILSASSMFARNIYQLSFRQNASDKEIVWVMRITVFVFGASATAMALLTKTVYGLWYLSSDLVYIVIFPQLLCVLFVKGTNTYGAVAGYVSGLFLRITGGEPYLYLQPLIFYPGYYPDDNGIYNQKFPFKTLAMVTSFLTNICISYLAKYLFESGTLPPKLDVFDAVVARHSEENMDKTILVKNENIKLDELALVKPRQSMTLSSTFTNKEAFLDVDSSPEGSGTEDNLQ
Put plainly: CHT inhibitors, dose response, cell-based, 5-point CRC, membrane potential dye (AID 504840).

The target of experiment [2] is T1, High affinity choline transporter 1. Description: CHT inhibitors, dose response, cell-based, 10-point CRC, membrane potential dye (AID 588401).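 Further: membrane potential dye fluorescence of choline-evoked depolarization via CHT.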
Experiment [3] concerns the target T2, Mitochondrial peptide methionine sulfoxide reductase (Bos taurus, UniProt P54149).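 Further: absorbance read-out, biochemical high-throughput dose-response screen for MsrA inhibitors, confirmatory; recombinant bovine MsrA coupled to E. coli TrxB with NADPH and selenocystamine; potency is for inhibitors of MsrA activity on DMSO substrate.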
T2 sequence (P54149 whole entry): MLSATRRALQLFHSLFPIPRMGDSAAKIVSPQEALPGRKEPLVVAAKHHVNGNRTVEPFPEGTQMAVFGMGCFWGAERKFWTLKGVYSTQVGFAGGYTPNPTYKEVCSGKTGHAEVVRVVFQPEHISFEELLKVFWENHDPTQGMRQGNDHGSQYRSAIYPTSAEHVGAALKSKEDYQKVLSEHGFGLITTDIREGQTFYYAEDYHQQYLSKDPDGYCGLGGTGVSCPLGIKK

The subject of another experiment is CHO-K1. Put plainly: Counterscreen for antagonists of the orexin 1 receptor (OX1R; HCRTR1): Homogeneous time resolved fluorescence (HTRF)-based cell-based dose response assay to identify antagonists of the parental CHO-K1 cell line. [Related pubchem assays (depositor defined):AID434989, AID435008, AID463079, AID485270, AID492963, AID492964, AID492965, AID493232, AID504699, AID504701]. The conditions noted are these: Cricetulus griseus.

Experiment [4] in a line: Counterscreen for antagonists of the orexin 1 receptor (OX1R; HCRTR1): Fluorescence-based cell-based high throughput dose response assay to identify antagonists of the parental CHO cell line. [Related pubchem assays (depositor defined):AID434989, AID435008, AID463079, AID485270, AID492963, AID492964, AID492965, AID493232, AID504699, AID504701]. On the technique in general: A counterscreen serves to expose hits that act by an unwanted route or on another target.

Experiment [5] addresses T3, Orexin/Hypocretin receptor type 1 (Homo sapiens, UniProt O43613).
T3 sequence (O43613 whole entry): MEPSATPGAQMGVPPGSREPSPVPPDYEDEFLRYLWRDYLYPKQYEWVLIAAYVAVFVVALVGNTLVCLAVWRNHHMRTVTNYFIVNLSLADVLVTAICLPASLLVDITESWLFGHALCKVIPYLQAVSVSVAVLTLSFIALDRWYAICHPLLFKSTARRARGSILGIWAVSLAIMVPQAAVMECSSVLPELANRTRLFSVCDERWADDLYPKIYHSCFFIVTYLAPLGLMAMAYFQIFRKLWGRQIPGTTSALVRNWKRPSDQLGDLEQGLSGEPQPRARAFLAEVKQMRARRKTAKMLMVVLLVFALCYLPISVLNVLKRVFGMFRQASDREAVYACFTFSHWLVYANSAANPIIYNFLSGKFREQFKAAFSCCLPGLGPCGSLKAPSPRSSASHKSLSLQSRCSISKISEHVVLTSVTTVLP
Put plainly: Homogeneous Time Resolved Fluorescence (HTRF)-based cell-based high throughput dose response assay for antagonists of the orexin 1 receptor (OX1R; HCRTR1). [Related pubchem assays (depositor defined):AID434989, AID435008, AID463079, AID485270, AID492963, AID492964, AID492965, AID493232, AID504717, AID504718]. On the technique in general: In TR-FRET formats the signal depends on donor and acceptor labels being close together.

For experiment [6], the target named is T3, Orexin/Hypocretin receptor type 1. Put plainly: Fluorescence-based cell-based high throughput dose response assay for antagonists of the orexin 1 receptor (OX1R; HCRTR1). [Related pubchem assays (depositor defined):AID434989, AID435008, AID463079, AID485270, AID492963, AID492964, AID492965, AID493232, AID504717, AID504718].
Experiment [7] has as its target T4, Orexin receptor type 2 (Homo sapiens, UniProt O43614).
T4 sequence (O43614 whole entry): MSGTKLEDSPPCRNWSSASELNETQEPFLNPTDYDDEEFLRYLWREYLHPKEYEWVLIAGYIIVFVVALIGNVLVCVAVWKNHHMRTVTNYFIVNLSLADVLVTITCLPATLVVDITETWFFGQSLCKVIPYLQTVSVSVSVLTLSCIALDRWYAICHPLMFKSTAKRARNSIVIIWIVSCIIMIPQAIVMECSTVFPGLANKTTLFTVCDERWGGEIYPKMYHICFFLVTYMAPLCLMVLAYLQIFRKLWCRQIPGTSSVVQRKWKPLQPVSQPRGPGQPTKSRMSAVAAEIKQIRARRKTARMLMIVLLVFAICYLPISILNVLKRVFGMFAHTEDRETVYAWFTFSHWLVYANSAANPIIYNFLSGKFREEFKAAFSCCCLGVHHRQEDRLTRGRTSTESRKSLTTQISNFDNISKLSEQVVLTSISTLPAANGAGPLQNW
Put plainly: Counterscreen assay for antagonists of the orexin 1 receptor (OX1R; HCRTR1): Fluorescence-based cell-based dose response assay for antagonists of the orexin 2 receptor (OX2R; HCRTR2), run by assay provider.

Experiment [8] concerns the target T4, Orexin receptor type 2. Put plainly: Counterscreen assay for antagonists of the orexin 1 receptor (OX1R; HCRTR1): Homogeneous Time Resolved Fluorescence (HTRF)-based cell-based dose response assay for antagonists of the orexin 2 receptor (OX2R; HCRTR2), run by assay provider.

From ChEMBL document CHEMBL1201862, “PubChem BioAssay data set” (2004) come the findings set out here.

Structures are written as SMILES. Activity calls are given as the source filed them. For most assays here, no stated cut-off is given here; in the data, active = IC50 of 10 µM or less and inactive = more. Some results are limits rather than exact numbers.

A word on the IC50: it is the concentration that inhibits the measured activity by half.

Take `CCc1c(C)nc(N)nc1N1N=C1SCCOc1ccccc1`: the IC50 was 9.19 µM (active) in experiment [1] and 4.47 µM (active) in experiment [2].
Regarding `O=C(O)COc1ccc(/C=N/NC(=O)/C(=C/C=C/c2ccccc2)NC(=O)c2ccccc2)cc1`, in [3], the IC50 is 103 µM (inactive).
Consider `Fc1ccccc1N=C(S)NNc1ncc(C(F)(F)F)cc1Cl`, for which the results for the IC50 in experiment [1] and in experiment [2] were 10 µM (active) and 3.55 µM (active), respectively.
With `COc1cc(CN2CC(=O)N(c3ccccc3Cl)C2=S)cc(OC)c1OC`, the IC50 is > 66.2 µM (inactive) in the experiment on CHO-K1; 21.4 µM (inactive) in experiment [4]; 1.01 µM (active) in experiment [5]; 6.26 µM (active) in [6]; > 88.8 µM (inactive) at Orexin receptor type 2 [7]; > 50 µM (inactive) at Orexin receptor type 2 [8].
On to `Cc1ccc(-c2csc3nnc(SCC(=O)Nc4nsc(-c5ccccc5)n4)n23)cc1`, for which the IC50 in the experiment on CHO-K1 was > 66.2 µM (inactive); in experiment [4] it was > 49.7 µM (inactive); in experiment [5], 2.53 µM (active); in experiment [6], 5.64 µM (active); at Orexin receptor type 2 [7], > 88.8 µM (inactive); on Orexin receptor type 2 [8] it was 0.177 µM (active).
